Results from PubChem BioAssay AID328 (DTP/NCI, 2004).
Several values for one entry are separate records, joined by “and”; a condition that tells them apart may be missing. Identical values can stand only once. Inconclusive results and toxic doses are left out.

System: BDF1 mice, P388 leukemia ip, median survival T/C
Test: NCI In Vivo Anticancer Drug Screen. Data for tumor model P388 Leukemia (intraperitoneal) in B6D2F1 (BDF1) mice
Details: endpoint: median survival time, higher = longer survival
Procedure, shortened: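 In tumour-bearing mice, survival after compound treatment is set against the vehicle group and given as a quotient.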

[1] = dose: 50.0 mg/kg/injection, schedule: Q01DX009 (ip), vehicle: saline with Tween-80
[2] = dose: 100.0 mg/kg/injection, schedule: Q01DX009 (ip), vehicle: saline with Tween-80
[3] = dose: 200.0 mg/kg/injection, schedule: Q01DX009 (ip), vehicle: saline with Tween-80
[4] = dose: 100.0 mg/kg/injection, schedule: Q01DX001 (ip), vehicle: saline sonified
[5] = dose: 200.0 mg/kg/injection, schedule: Q01DX001 (ip), vehicle: saline sonified
[6] = dose: 400.0 mg/kg/injection, schedule: Q01DX001 (ip), vehicle: saline sonified
[7] = dose: 100.0 mg/kg/injection, schedule: Q04DX003 (ip), vehicle: Klucel (hydroxypropylcellulose) (HPC)
[8] = dose: 200.0 mg/kg/injection, schedule: Q04DX003 (ip), vehicle: Klucel (hydroxypropylcellulose) (HPC)
[9] = dose: 100.0 mg/kg/injection, schedule: Q01DX009 (ip), vehicle: saline
[10] = dose: 100.0 mg/kg/injection, schedule: Q01DX009 (ip), vehicle: water
[11] = dose: 100.0 mg/kg/injection, schedule: Q04DX003 (ip), vehicle: water
[12] = dose: 200.0 mg/kg/injection, schedule: Q01DX009 (ip), vehicle: water
[13] = dose: 200.0 mg/kg/injection, schedule: Q04DX003 (ip), vehicle: water
[14] = dose: 400.0 mg/kg/injection, schedule: Q04DX003 (ip), vehicle: Klucel (hydroxypropylcellulose) (HPC)
[15] = dose: 50.0 mg/kg/injection, schedule: Q01DX009 (ip), vehicle: water
[16] = dose: 400.0 mg/kg/injection, schedule: Q01DX009 (ip), vehicle: saline with Tween-80
[17] = dose: 100.0 mg/kg/injection, schedule: Q01DX009 (ip), vehicle: Klucel (hydroxypropylcellulose) (HPC)
[18] = dose: 200.0 mg/kg/injection, schedule: Q01DX009 (ip), vehicle: Klucel (hydroxypropylcellulose) (HPC)
[19] = dose: 400.0 mg/kg/injection, schedule: Q01DX009 (ip), vehicle: Klucel (hydroxypropylcellulose) (HPC)

CCSC1(SCC)C(=O)OC2=C(CCCC2)C1N1CCOCC1 (stereo not given)
T/C [1]: 99 % of control | T/C [2]: 99 % of control | T/C [3]: 94 % of control

CC(C)(C)c1cccc(S(=O)(=O)Oc2ccccc2[N+](=O)[O-])c1
T/C [4]: 100 % of control | T/C [5]: 118 % of control | T/C [6]: 95 % of control

COC(OC)C(=O)/C=C/C(C)COC1CCCCO1 (stereo not given)
T/C (dose: 50.0 mg/kg/injection, schedule: Q04DX003 (ip), vehicle: Klucel (hydroxypropylcellulose) (HPC)): 113 % of control | T/C [7]: 118 % of control | T/C [8]: 109 % of control

Cc1ccc(C(O)(CS(C)=O)c2ccco2)cc1 (stereo not given)
T/C (dose: 50.0 mg/kg/injection, schedule: Q01DX009 (ip), vehicle: saline + alcohol): 98 % of control | T/C (dose: 100.0 mg/kg/injection, schedule: Q01DX009 (ip), vehicle: saline + alcohol): 90 % of control

OC1OC(COC(c2ccccc2)(c2ccccc2)c2ccccc2)C(O)C(O)C1O (stereo not given)
T/C (dose: 10.0 mg/kg/injection, schedule: Q01DX009 (ip), vehicle: saline): 123 % of control | T/C (dose: 12.5 mg/kg/injection, schedule: Q01DX009 (ip), vehicle: saline): 88 % of control | T/C (dose: 20.0 mg/kg/injection, schedule: Q01DX009 (ip), vehicle: saline): 108 % of control | T/C (dose: 25.0 mg/kg/injection, schedule: Q01DX009 (ip), vehicle: saline): 104 % of control and 115 % of control | T/C (dose: 40.0 mg/kg/injection, schedule: Q01DX009 (ip), vehicle: saline): 114 % of control | T/C (dose: 50.0 mg/kg/injection, schedule: Q01DX009 (ip), vehicle: saline): 101 % of control and 123 % of control | T/C (dose: 80.0 mg/kg/injection, schedule: Q01DX009 (ip), vehicle: saline): 107 % of control | T/C [9]: 90 % of control and 104 % of control and 105 % of control | T/C [10]: 100 % of control | T/C (dose: 100.0 mg/kg/injection, schedule: Q04DX003 (ip), vehicle: saline with Tween-80): 110 % of control | T/C (dose: 100.0 mg/kg/injection, schedule: Q04DX003 (ip), vehicle: saline): 90 % of control | T/C [11]: 105 % of control | T/C [12]: 105 % of control | T/C (dose: 200.0 mg/kg/injection, schedule: Q04DX003 (ip), vehicle: saline with Tween-80): 105 % of control | T/C (dose: 200.0 mg/kg/injection, schedule: Q04DX003 (ip), vehicle: saline): 95 % of control | T/C [13]: 110 % of control | T/C (dose: 400.0 mg/kg/injection, schedule: Q01DX009 (ip), vehicle: water): 105 % of control | T/C (dose: 400.0 mg/kg/injection, schedule: Q04DX003 (ip), vehicle: saline with Tween-80): 110 % of control | T/C (dose: 400.0 mg/kg/injection, schedule: Q04DX003 (ip), vehicle: water): 110 % of control

CN(C)P(N)(N)=O
T/C [7]: 100 % of control | T/C [8]: 100 % of control | T/C [14]: 95 % of control

NC(=S)NNC(=O)/C=C/c1ccccc1
T/C [4]: 104 % of control | T/C [5]: 100 % of control | T/C [6]: 95 % of control

CC(C)c1ccc(NC(=O)Nc2cccc3ccccc23)cc1
T/C (dose: 50.0 mg/kg/injection, schedule: Q01DX001 (ip), vehicle: saline with Tween-80): 95 % of control | T/C (dose: 100.0 mg/kg/injection, schedule: Q01DX001 (ip), vehicle: saline with Tween-80): 109 % of control | T/C (dose: 200.0 mg/kg/injection, schedule: Q01DX001 (ip), vehicle: saline with Tween-80): 100 % of control

COc1cc2c(cc1OC)C(=O)C(c1ccc3c(c1)OCO3)CC2 (stereo not given)
T/C (dose: 12.5 mg/kg/injection, schedule: Q01DX009 (ip), vehicle: water): 98 % of control | T/C (dose: 12.5 mg/kg/injection, schedule: Q04DX003 (ip), vehicle: water): 95 % of control | T/C (dose: 25.0 mg/kg/injection, schedule: Q01DX009 (ip), vehicle: water): 93 % of control | T/C (dose: 25.0 mg/kg/injection, schedule: Q04DX003 (ip), vehicle: water): 101 % of control | T/C [15]: 88 % of control and 92 % of control | T/C (dose: 50.0 mg/kg/injection, schedule: Q04DX003 (ip), vehicle: water): 100 % of control | T/C (dose: 75.0 mg/kg/injection, schedule: Q01DX009 (ip), vehicle: water): 93 % of control | T/C [10]: 87 % of control | T/C [11]: 88 % of control | T/C [12]: 91 % of control

CC[N+](CC)(CC)CCC[N+](CC)(CC)CC
T/C [15]: 89 % of control | T/C [11]: 109 % of control | T/C [13]: 90 % of control

NS(=O)(=O)c1ccc(C(=O)NO)cc1
T/C (dose: 100.0 mg/kg/injection, schedule: Q01DX001 (ip), vehicle: saline): 100 % of control | T/C (dose: 200.0 mg/kg/injection, schedule: Q01DX001 (ip), vehicle: saline): 108 % of control | T/C (dose: 400.0 mg/kg/injection, schedule: Q01DX001 (ip), vehicle: saline): 108 % of control

C=CC12COC(=O)C(=C)C1C1OC(=O)C(=C)C1C(O)C2 (stereo not given)
T/C (dose: 1.0 mg/kg/injection, schedule: Q01DX009 (ip), vehicle: water): 118 % of control | T/C (dose: 2.0 mg/kg/injection, schedule: Q01DX009 (ip), vehicle: water): 109 % of control | T/C (dose: 4.6 mg/kg/injection, schedule: Q01DX010 (ip), vehicle: carboxymethylcellulose (CMC)): 115 % of control | T/C (dose: 8.0 mg/kg/injection, schedule: Q01DX009 (ip), vehicle: water): 113 % of control | T/C (dose: 10.0 mg/kg/injection, schedule: Q01DX009 (ip), vehicle: saline + alcohol): 122 % of control | T/C (dose: 125.0 micrograms/kg/injection, schedule: Q01DX010 (ip), vehicle: carboxymethylcellulose (CMC)): 95 % of control | T/C (dose: 250.0 micrograms/kg/injection, schedule: Q01DX010 (ip), vehicle: carboxymethylcellulose (CMC)): 95 % of control | T/C (dose: 500.0 micrograms/kg/injection, schedule: Q01DX010 (ip), vehicle: carboxymethylcellulose (CMC)): 100 % of control | T/C (dose: 1000.0 micrograms/kg/injection, schedule: Q01DX010 (ip), vehicle: carboxymethylcellulose (CMC)): 104 % of control | T/C (dose: 2000.0 micrograms/kg/injection, schedule: Q01DX010 (ip), vehicle: carboxymethylcellulose (CMC)): 104 % of control | T/C (dose: 4000.0 micrograms/kg/injection, schedule: Q01DX010 (ip), vehicle: carboxymethylcellulose (CMC)): 100 % of control

COC(=O)C(I)C(OC)c1ccccc1 (stereo not given)
T/C [2]: 100 % of control | T/C [3]: 105 % of control | T/C [16]: 110 % of control

CC/C(C)=N/Nc1nncn2c1cc1ccccc12
T/C [1]: 94 % of control | T/C [2]: 100 % of control | T/C [3]: 97 % of control

CC1(C#N)CCc2c(ccc3ccccc23)C1=O (stereo not given)
T/C (dose: 50.0 mg/kg/injection, schedule: Q04DX003 (ip), vehicle: other): 91 % of control | T/C (dose: 100.0 mg/kg/injection, schedule: Q04DX003 (ip), vehicle: other): 95 % of control | T/C (dose: 200.0 mg/kg/injection, schedule: Q04DX003 (ip), vehicle: other): 100 % of control

COc1ccc(Br)cc1/C=N/N=C/c1cc(Br)ccc1OC
T/C [2]: 95 % of control | T/C [3]: 95 % of control | T/C [16]: 95 % of control

Cc1cc(N(C)C)ccc1C=O
T/C [17]: 100 % of control | T/C [7]: 100 % of control | T/C [18]: 95 % of control | T/C [19]: 109 % of control | T/C [14]: 91 % of control

C/C(N=Nc1ccc([N+](=O)[O-])cc1)=N\Nc1ccccc1
T/C [17]: 94 % of control | T/C [7]: 91 % of control | T/C [18]: 100 % of control | T/C [8]: 87 % of control | T/C [19]: 100 % of control | T/C [14]: 104 % of control

CC1=CCC2(C)C(=O)C1CC1=C2CC(C)(C)CC1=O (stereo not given)
T/C [9]: 100 % of control | T/C (dose: 400.0 mg/kg/injection, schedule: Q01DX009 (ip), vehicle: saline): 100 % of control

CCCCCCCC[N+](C)(C)CCSCC[N+](C)(C)CCCCCCCC
T/C (dose: 12.5 mg/kg/injection, schedule: Q01DX009 (ip), vehicle: saline with Tween-80): 109 % of control

[N-]=[N+]=CC(=O)NCC(=O)NN
T/C (dose: 50.0 mg/kg/injection, schedule: Q01DX010 (ip), vehicle: water): 120 % of control | T/C (dose: 200.0 mg/kg/injection, schedule: Q01DX010 (ip), vehicle: water): 166 % of control and 175 % of control | T/C (dose: 400.0 mg/kg/injection, schedule: Q01DX010 (ip), vehicle: saline): 181 % of control
